The source made the active and inactive calls. The rule behind the calls is not given here.
What follows are compounds tested on DN3.2.D3 (assay: Stimulation of IL2 release in mouse DN3.2.D3 cells by ELISA).
Type: functional, cell-based

Structure (SMILES)	Activity
CCCCCCCCCCCCCC[C@@H](O)[C@@H](O)[C@H](CO[C@H]1O[C@H](CNC(C)=O)[C@H](O)[C@H](O)[C@H]1O)NC(=O)CCCCCCC	Active
CCCCCCCCCCCCCC[C@@H](O)[C@@H](O)[C@H](CO[C@H]1O[C@H](CNC(C)=O)[C@H](O)[C@H](O)[C@H]1O[C@H]1O[C@H](CO)[C@H](O)[C@H](O)[C@H]1O)NC(=O)CCCCCCC	Active
CCCCCCCCCCCCCC[C@@H](O)[C@@H](O)[C@H](CO[C@H]1O[C@H](CO)[C@H](O)[C@H](O)[C@H]1O)NC(=O)CCCCCCC	Active

Source: ChEMBL document CHEMBL1144763, “Synthesis of diglycosylceramides and evaluation of their iNKT cell stimulatory properties” (Bioorg Med Chem Lett, 2008)
